Results taken from paper PMC7297817, “Pharmacological Characterization of a Betaine/GABA Transporter 1 (BGT1) Inhibitor Displaying an Unusual Biphasic Inhibition Profile and Anti-seizure Effects” (Neurochemical Research, 2020).
Entries after “also recorded” stand apart in the source; their conditions may differ. Where two headings read alike, the source gives them in different places.

Assays:
GABAA rat brain = test: NIMH PDSP radioligand binding, GABAA rat brain; conditions: 10 μM; radioligand [3H]muscimol; n=4
Protocol: (§1) IC50 values in μM (Ki μM)^a. The targets in bold were inhibited by >35% at 10 μM.

hBGT1 = biological target: T1, hBGT1 (Homo sapiens, UniProt P48065); test: [3H]GABA uptake at hBGT1 stably expressed in CHO cells; assay type: cell-based
T1 construct: expressed in transfected cells; host or cells: tsA201 (transient)
T1 sequence (P48065 1-614): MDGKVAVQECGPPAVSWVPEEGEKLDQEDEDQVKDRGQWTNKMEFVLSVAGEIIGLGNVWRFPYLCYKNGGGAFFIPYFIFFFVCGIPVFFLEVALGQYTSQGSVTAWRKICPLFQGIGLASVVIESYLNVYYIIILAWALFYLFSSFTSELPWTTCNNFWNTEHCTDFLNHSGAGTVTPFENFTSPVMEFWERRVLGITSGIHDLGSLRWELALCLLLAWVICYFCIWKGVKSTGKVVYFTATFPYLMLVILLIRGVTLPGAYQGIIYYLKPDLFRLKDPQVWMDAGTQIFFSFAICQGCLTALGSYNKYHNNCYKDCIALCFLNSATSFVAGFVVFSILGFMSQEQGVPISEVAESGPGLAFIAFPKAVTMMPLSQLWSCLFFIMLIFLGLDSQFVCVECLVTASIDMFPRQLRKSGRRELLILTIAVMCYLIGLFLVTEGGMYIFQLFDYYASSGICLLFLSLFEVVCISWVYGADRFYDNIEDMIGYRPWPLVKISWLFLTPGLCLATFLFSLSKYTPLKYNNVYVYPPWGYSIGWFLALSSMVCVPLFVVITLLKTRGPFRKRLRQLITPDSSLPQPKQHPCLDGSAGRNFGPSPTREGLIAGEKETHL
Protocol: (§2) The HEK-293 and Flp-In CHO cell lines stably expressing mouse (m) and human (h) GATs, respectively, have been described previously and were cultured accordingly. The tsA201 cell line was used for transient expression while the MDCK II cell line express BGT1 endogenously. Both cell lines were cultured as described. tsA201 cells were transfected with DNA constructs (8 μg per 10 cm dish if not otherwise mentioned) using 40 μL PolyFect transfection reagent according to the manufacturer’s protocol (Qiagen, Venlo, Netherlands). The DNA constructs encoding hBGT1, hGAT1-3 [36], the mutated constructs hBGT1 Q299 and hGAT3 L314Q described previously, and hBGT Y453A were synthesized and sequence validated by Genscript (NJ, USA).
(§3) The [^3H]GABA competition uptake assay was performed as previously described. A minor change, however, was introduced for uptake in MDCK II cells, in which 100 nM [^3H]GABA was used for a 15 min incubation period at 37 °C instead of 30 nM [^3H]GABA and 3 min incubation. Studies related to the inhibition curves with GABA and BPDBA at hBGT1 were obtained both with and without the presence of 10 μM ATP during the [^3H]GABA uptake assay.
(§4) The [^3H]GABA uptake data was normalized to the percentage of total uptake in the individual experiments in the presence of the lowest compound concentration or no compound present. Data presented is the pooled data of at least three independent experiments with three technical replicates. Concentration–response curves (CRCs) were fitted with GraphPad Prism (version 8.2.1, Yosemite, GraphPad Software, San Diego, CA, USA) by non-linear regression to the sigmoidal concentration response model: Y=Bottom+(Top-Bottom)/1+10^LogIC50-X∗nH where Top is the Top plateau, Bottom is the Bottom plateau, X is the logarithm of the concentration of the compound, LogIC50 is the concentration giving a response halfway between Top and Bottom,and nH is the Hill slope.
(§5) The best fit for CRCs obtained with the [^3H]GABA uptake assay was identified by the extra-sum-of-squares F test (for convenience referred to as F test).

hGAT2 = biological target: T2, hGAT2 (Homo sapiens, UniProt Q9NSD5); test: [3H]GABA uptake at hGAT2 stably expressed in CHO cells; assay type: cell-based
T2 construct: expressed in transfected cells
T2 sequence (Q9NSD5 1-602): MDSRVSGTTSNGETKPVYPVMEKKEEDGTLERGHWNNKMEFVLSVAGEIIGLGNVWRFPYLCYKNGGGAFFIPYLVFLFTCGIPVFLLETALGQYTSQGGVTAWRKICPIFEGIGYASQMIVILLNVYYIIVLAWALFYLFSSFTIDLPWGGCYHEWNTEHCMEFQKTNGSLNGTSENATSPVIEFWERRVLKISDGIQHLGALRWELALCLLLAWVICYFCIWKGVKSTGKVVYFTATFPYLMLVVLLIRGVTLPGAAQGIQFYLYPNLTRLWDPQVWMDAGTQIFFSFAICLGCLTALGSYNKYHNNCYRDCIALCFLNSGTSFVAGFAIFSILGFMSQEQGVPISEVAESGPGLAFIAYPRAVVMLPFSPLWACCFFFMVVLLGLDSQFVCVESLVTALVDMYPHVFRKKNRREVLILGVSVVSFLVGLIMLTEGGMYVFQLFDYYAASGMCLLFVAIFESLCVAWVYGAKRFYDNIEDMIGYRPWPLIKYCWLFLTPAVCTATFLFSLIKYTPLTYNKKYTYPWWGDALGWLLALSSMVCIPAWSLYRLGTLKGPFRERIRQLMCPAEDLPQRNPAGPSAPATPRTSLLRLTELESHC
Protocol: as §2, §3, §4, §5

D4 = biological target: T3, D4 (Homo sapiens, UniProt P21917); test: NIMH PDSP radioligand binding, D4; conditions: radioligand [3H]N-methylspiperone, n=4
T3 construct: purchased NIMH Psychoactive Drug Screening Program (PDSP)
T3 sequence (P21917 whole entry): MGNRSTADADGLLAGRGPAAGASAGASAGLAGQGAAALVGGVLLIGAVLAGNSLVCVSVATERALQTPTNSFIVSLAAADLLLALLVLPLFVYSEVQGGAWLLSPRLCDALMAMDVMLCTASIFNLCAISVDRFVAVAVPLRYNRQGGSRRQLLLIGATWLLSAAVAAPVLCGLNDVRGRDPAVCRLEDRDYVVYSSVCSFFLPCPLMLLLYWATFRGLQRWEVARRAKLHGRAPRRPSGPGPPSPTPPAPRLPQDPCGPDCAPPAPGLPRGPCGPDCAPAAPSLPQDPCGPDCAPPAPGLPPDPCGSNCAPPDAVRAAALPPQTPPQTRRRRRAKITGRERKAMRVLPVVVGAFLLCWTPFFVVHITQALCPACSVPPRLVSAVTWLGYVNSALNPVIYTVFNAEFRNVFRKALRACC

M5 = biological target: T4, M5 (Homo sapiens, UniProt P08912); test: NIMH PDSP radioligand binding, M5
T4 construct: purchased NIMH Psychoactive Drug Screening Program (PDSP)
T4 sequence (P08912 whole entry): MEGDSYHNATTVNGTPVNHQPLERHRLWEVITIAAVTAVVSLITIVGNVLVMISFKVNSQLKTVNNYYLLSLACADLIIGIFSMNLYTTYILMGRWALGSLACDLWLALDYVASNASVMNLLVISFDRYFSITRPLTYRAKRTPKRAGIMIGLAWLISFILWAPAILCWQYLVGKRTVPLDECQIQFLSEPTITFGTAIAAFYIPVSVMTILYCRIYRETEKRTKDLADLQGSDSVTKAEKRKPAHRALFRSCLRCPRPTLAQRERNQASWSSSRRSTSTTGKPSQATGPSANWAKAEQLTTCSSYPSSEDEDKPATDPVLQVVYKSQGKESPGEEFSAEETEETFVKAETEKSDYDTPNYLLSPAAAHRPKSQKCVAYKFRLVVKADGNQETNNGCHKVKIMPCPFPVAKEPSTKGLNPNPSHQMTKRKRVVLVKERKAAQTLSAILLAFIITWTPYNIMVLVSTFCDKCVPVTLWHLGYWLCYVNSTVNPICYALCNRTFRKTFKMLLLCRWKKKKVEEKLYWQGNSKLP

mGAT2 = biological target: T5, mGAT2 (Mus musculus, UniProt P31649); test: [3H]GABA uptake at mGAT2 stably expressed in HEK-293 cells; assay type: cell-based
T5 construct: expressed in transfected cells
T5 sequence (P31649 whole entry): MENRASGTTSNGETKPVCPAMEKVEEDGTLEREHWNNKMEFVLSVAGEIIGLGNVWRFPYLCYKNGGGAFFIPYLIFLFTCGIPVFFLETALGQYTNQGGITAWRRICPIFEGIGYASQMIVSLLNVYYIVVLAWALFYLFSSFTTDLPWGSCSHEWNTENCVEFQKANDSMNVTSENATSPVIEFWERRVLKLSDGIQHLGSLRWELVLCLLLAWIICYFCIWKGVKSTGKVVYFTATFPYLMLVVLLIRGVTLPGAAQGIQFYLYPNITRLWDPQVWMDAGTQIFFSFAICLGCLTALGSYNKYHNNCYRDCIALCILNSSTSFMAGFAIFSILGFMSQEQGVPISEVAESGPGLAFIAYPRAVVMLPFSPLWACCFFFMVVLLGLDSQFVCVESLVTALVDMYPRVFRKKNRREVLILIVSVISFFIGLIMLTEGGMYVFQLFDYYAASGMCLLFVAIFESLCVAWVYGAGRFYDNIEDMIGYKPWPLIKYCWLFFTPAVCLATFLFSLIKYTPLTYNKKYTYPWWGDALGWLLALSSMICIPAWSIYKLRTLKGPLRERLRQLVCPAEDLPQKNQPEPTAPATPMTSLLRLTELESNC
Protocol: as §2, §3
The [^3H]GABA uptake data was normalized to the percentage of total uptake in the individual experiments in the presence of the lowest compound concentration or no compound present. […]

5-HT3 = biological target: T6, 5-HT3 (Homo sapiens, UniProt P46098); test: NIMH PDSP radioligand binding, 5-HT3; conditions: radioligand [3H]LY278584, n=4
T6 construct: purchased NIMH Psychoactive Drug Screening Program (PDSP)
T6 sequence (P46098 24-478): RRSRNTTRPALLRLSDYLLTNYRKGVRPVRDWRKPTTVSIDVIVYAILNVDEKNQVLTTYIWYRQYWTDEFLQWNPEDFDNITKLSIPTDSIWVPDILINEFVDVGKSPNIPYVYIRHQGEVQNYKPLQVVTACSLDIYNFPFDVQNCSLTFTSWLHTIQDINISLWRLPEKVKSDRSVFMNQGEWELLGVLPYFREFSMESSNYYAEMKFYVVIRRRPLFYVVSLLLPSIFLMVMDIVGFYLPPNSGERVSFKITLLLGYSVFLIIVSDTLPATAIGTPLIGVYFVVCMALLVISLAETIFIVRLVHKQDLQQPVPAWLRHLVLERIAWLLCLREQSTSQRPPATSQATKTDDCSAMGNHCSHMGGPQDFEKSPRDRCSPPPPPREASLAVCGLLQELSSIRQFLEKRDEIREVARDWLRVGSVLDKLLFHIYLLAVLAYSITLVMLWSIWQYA

SERT = biological target: T7, SERT (Homo sapiens, UniProt P31645); test: NIMH PDSP radioligand binding, SERT; conditions: radioligand [3H]citalopram, n=4
T7 construct: purchased NIMH Psychoactive Drug Screening Program (PDSP)
T7 sequence (P31645 whole entry): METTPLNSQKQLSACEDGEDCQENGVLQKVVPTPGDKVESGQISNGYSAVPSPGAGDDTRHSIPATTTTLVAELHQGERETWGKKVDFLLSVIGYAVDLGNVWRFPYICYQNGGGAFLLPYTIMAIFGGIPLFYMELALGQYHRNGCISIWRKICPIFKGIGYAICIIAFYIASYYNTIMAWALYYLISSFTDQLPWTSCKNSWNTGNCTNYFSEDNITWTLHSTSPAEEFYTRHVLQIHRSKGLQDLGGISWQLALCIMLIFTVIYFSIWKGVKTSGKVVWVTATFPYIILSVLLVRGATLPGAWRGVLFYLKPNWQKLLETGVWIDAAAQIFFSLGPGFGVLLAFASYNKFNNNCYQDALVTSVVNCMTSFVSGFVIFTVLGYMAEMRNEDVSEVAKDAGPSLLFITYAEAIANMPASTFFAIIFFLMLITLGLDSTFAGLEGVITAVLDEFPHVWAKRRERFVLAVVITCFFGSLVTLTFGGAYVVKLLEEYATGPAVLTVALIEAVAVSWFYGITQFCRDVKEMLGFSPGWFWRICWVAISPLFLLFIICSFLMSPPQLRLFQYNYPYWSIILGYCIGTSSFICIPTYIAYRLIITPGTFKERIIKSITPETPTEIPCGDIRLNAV

BZP rat brain = test: NIMH PDSP radioligand binding, BZP rat brain; conditions: 10 μM; radioligand [3H]Flunitrazepam; n=4
Protocol: as §1

Beta3 = biological target: T8, Beta3 (Homo sapiens, UniProt P13945); test: NIMH PDSP radioligand binding, Beta3; conditions: radioligand [3H]CGP12177, n=4
T8 construct: purchased NIMH Psychoactive Drug Screening Program (PDSP)
T8 sequence (P13945 whole entry): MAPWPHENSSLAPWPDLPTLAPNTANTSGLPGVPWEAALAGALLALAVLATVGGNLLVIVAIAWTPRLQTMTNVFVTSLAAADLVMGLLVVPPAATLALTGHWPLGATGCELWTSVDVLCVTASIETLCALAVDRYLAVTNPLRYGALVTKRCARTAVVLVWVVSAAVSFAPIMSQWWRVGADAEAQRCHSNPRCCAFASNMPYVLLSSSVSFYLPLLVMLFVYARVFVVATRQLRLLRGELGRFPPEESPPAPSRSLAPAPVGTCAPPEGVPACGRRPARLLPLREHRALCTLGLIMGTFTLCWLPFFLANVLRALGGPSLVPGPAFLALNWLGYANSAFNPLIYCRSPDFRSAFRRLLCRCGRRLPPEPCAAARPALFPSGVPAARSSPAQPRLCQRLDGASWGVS

Cc1ccsc1C(=CCCN(C)[C@H]1CCCC[C@H]1C(=O)O)c1sccc1C [SBV2-114, (1R,2S)-2-((4,4-bis(3-methylthiophen-2-yl)but-3-en-yl)(methyl)amino)cyclohexanecarboxylic acid]
% inhibition (GABAA rat brain): -1.5% | IC50 (hBGT1; IC50, high affinity component, biphasic fit, N=2 of four experiments, CHO): 0.05 µM | Frac (hBGT1; biphasic fit, N=2, CHO): 0.10 | IC50 (hBGT1; pIC50 ± S.E.M., high affinity component, biphasic fit, N=2, CHO): 0.0513 µM | Fit (hBGT1; preferred model, N=2): Biphasic | IC50 (hBGT1; read-out: IC50, low affinity component, biphasic fit, N=2, CHO): 490 µM | IC50 (hBGT1; single IC50, N=2, fit not given, CHO, read-out: IC50): 447 µM | IC50 (hGAT2; ambiguous fit, N=3, CHO, read-out: IC50): 525 µM | Frac (hGAT2; biphasic fit, N=1, CHO): 0.06 | IC50 (hGAT2; biphasic fit, N=1, CHO, read-out: IC50, high affinity component): 3.31 µM | Fit (hGAT2; preferred model per experiment): Biphasic; also recorded: Ambiguous | IC50 (hGAT2; read-out: IC50, low affinity component, biphasic fit, N=1, CHO): 550 µM | inhibition at 10 µM (D4): -5.1% | inhibition at 10 µM (M5): 23.5% | IC50 (mGAT2): > 1000 µM | Fit (mGAT2; preferred model, N=3): Ambiguous | inhibition at 10 µM (5-HT3): -3% | inhibition at 10 µM (SERT): 18.8% | % inhibition (BZP rat brain): 9.1% | inhibition at 10 µM (Beta3): 8.3%
